Values of other authors in patent publication US5086043A, “Production of Saponins of Lichi” (priority 1990, dated 1992).

Legend:
capillary permeability = settings: mice; established in the prior art
[1] = tested on: carrageenin-induced swelling; settings: rats; established in the prior art

## CC1(C)CC[C@]2(C(=O)O)CC[C@]3(C)C(=CC[C@@H]4[C@@]5(C)CC[C@H](O)C(C)(C)[C@@H]5CC[C@]43C)[C@@H]2C1 [oleanolic acid, Oleanolic acid]
Capillary permeability
  capillary permeability: inhibited capillary permeability in mice
[1]
  carrageenin-induced swelling: inhibited carrageenin-induced swelling in rats
